# Laboratory results taken from EP0430485A2, “Quinoline compound” (priority 1989, dated 1991).
# Structures can show the parent of a compound that is named as a salt.
# System: scopolamine-induced amnesia
# Format: in vivo, Wistar male rats
# Settings: rat, in vivo
# Method: In order to show effects of the compounds according to the present invention in more detail, a part of experimental examples relating to action against scopolamine-induced amnesia for step-through passive avoidance response in rats is shown below.
# Wistar male rats of 7 to 8 weeks old were used to experiment after fasting for 12 hours. Rats were divided into groups with 8 rats per group and 1.5 mg/kg of scopolamine was intraperitoneally administered. After 30 minutes from the administration, rats were placed in a light compartment of a step-through type passive avoidance apparatus constituted by two compartments (25 × 10 × 25 cm of a light compartment and 30 × 30 × 30 cm of a dark compartment having a guillotine door and a floor grid for passing current) and a latent time by entering into a dark compartment was measured. The guillotine door was shut when a rat entered into the dark compartment and shock with 0.6 mA for 3 seconds was applied through the floor grid for acquisition trial. After acquisition trial, 10 mg/kg of each test compound was orally administered to rats and returned to their home cage. After 24 hours, rats were again placed in the light compartment at which the guillotine door was opened, a latent time by entering into the dark compartment was measured whereby presence or absence of improved effect of memory retention was judged.
row,Molecule,Latent time of memory retention [s]
1,"Nc1c2c(nc3ccccc13)CCCC2 [Tacrine, 9-amino-1,2,3,4-tetrahydroacridine, reference compound]",58

# Same assay, conditions: rats, scopolamine 1.5 mg/kg intraperitoneally; test compound 10 mg/kg p.o. after acquisition trial; latent time by entering the dark compartment measured after 24 hours; 8 rats per group
row,Molecule,Latent time of memory retention [s]
1,"Nc1c2c(nc3ccccc13)NCC2 [Example 22, 4-Amino-2,3-dihydro-1H-pyrrolo[2,3-b]quinoline·hydrobromide]",78
2,"CC(=O)N1CCCc2c1nc1cccc(F)c1c2N [Example 24, 1-acetyl-5-amino-6-fluoro-1,2,3,4-tetrahydrobenzo[b] [1,8]naphthylidine]",168
3,"CN1CCc2c1nc1ccccc1c2N [Example 1, 4-amino-1-methyl-2,3-dihydro-1H-pyrrolo[2,3-b] quinoline]",128
4,Nc1c2c(nc3cccc(F)c13)N(C(=O)c1ccccc1)CCC2 [Example 26],84
5,"Nc1c2c(nc3cccc(Cl)c13)N(Cc1ccccc1)CCCC2 [Example 11, 6-Amino-1-benzyl-7-chloro-2,3,4,5-tetrahydro-1H-azepino[2,3-b]quinoline·hydrochloride]",163
6,"Nc1c2c(nc3ccccc13)N(Cc1ccccc1)CCCC2 [Example 10, 6-Amino-1-benzyl-2,3,4,5-tetrahydro-1H-azepino[2,3-b]-quinoline·hydrochloride]",188
7,"Nc1c2c(nc3cccc(Cl)c13)NCCC2 [Example 21, 5-amino-6-chloro-1,2,3,4-tetrahydrobenzo[b] [1,8]naphthylidine]",117
8,"Nc1c2c(nc3cccc(F)c13)NCCC2 [Example 20, 5-amino-6-fluoro-1,2,3,4-tetrahydrobenzo[d] [1,8]naphthylidine]",59
9,"CCCCCCCCCCCCN1CCCCc2c1nc1cccc(F)c1c2N [Example 3, 6-amino-1-dodecyl-7-fluoro-2,3,4,5-tetrahydro-1H-azepino[2,3-b]quinoline]",140
10,"4-Amino-5-fluoro-1-isoamyl-2,3-dihydro-1H-pyrrolo[2,3-b]quinoline·trihydrate [Example 33]",151
11,"Nc1c2c(nc3cc(Cl)ccc13)NCCC2 [Example 31, 5-Amino-8-chloro-1,2,3,4-tetrahydrobenzo[b] [1,8]naphthylidine]",72
